Measurements: the supplement of paper PMC10307832

What was measured:
Experiment in all cases: relative viability (nuclei count vs DMSO), 5 days (fraction); higher = more cells survive
NCI-H647 = tested on: NCI-H647
Procedure, shortened: (§1)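 Medians of duplicate plates are given as relative viability. That measure is the nuclei count in treated wells divided by the count in vehicle wells. Counts were taken on 4× images of lung cancer cell lines in 1536-well plates, 5 days after pin-tool dosing the day after seeding with one drug alone or a fixed anchor-drug dose plus five library-drug doses (not always all listed) in √10 steps.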

H3255 = tested on: H3255
Procedure, shortened: as §1

NCI-H2347 = tested on: NCI-H2347
Procedure, shortened: as §1

NCI-H520 = tested on: NCI-H520
Procedure, shortened: as §1

RERF-LC-KJ = tested on: RERF-LC-KJ
Procedure, shortened: as §1

PC-14 = tested on: PC-14
Procedure, shortened: as §1

HCC-827 = tested on: HCC-827
Procedure, shortened: as §1

201T = tested on: 201T
Procedure, shortened: as §1

NCI-H2126 = tested on: NCI-H2126
Procedure, shortened: as §1

COR-L 105 = tested on: COR-L 105
Procedure, shortened: as §1

ChaGo-K-1 = tested on: ChaGo-K-1
Procedure, shortened: as §1

NCI-H1666 = tested on: NCI-H1666
Procedure, shortened: as §1

LC-2-ad = tested on: LC-2-ad
Procedure, shortened: as §1

NCI-H2405 = tested on: NCI-H2405
Procedure, shortened: as §1

LCLC-97TM1 = tested on: LCLC-97TM1
Procedure, shortened: as §1

NCI-H661 = tested on: NCI-H661
Procedure, shortened: as §1

NCI-H650 = tested on: NCI-H650
Procedure, shortened: as §1

EPLC-272H = tested on: EPLC-272H
Procedure, shortened: as §1

NCI-H1915 = tested on: NCI-H1915
Procedure, shortened: as §1

NCI-H23 = tested on: NCI-H23
Procedure, shortened: as §1

NCI-H2087 = tested on: NCI-H2087
Procedure, shortened: as §1

`Nc1ccn([C@@H]2O[C@H](CO)[C@@H](O)[C@@H]2O)c(=O)n1` [Cytarabine] + CCNC(=O)c1noc(-c2cc(C(C)C)c(O)cc2O)c1-c1ccc(CN2CCOCC2)cc1 [Luminespib] (partner 0.01 µM) gave a relative viability (NCI-H647; first compound 0.005 µM) of 0.146, a relative viability (NCI-H647; first compound 0.01581 µM) of 0.111 and a relative viability (NCI-H647; first compound 0.05 µM) of 0.112. For the same compound, the relative viability (NCI-H647; first compound 0.1581 µM) was 0.0665, the relative viability (NCI-H647; first compound 0.5 µM) was 0.0757 and the relative viability (H3255; first compound 0.005 µM) was 0.98. For the same compound, the relative viability (H3255; first compound 0.01581 µM) was 0.763, the relative viability (H3255; first compound 0.05 µM) was 0.69 and the relative viability (H3255; first compound 0.1581 µM) was 0.662. It also gave a relative viability (H3255; first compound 0.5 µM) of 0.554, a relative viability (NCI-H2347; first compound 0.005 µM) of 0.284 and a relative viability (NCI-H2347; first compound 0.01581 µM) of 0.402. It also gave a relative viability (NCI-H2347; first compound 0.05 µM) of 0.39, a relative viability (NCI-H2347; first compound 0.1581 µM) of 0.255 and a relative viability (NCI-H2347; first compound 0.5 µM) of 0.411. For the same compound, the relative viability (NCI-H520; first compound 0.005 µM) was 0.218, the relative viability (NCI-H520; first compound 0.01581 µM) was 0.216 and the relative viability (NCI-H520; first compound 0.05 µM) was 0.2. The relative viability (NCI-H520; first compound 0.1581 µM) was 0.233, the relative viability (NCI-H520; first compound 0.5 µM) was 0.223 and the relative viability (RERF-LC-KJ; first compound 0.005 µM) was 0.968. For the same compound, the relative viability (RERF-LC-KJ; first compound 0.01581 µM) was 1.04, the relative viability (RERF-LC-KJ; first compound 0.05 µM) was 0.977 and the relative viability (RERF-LC-KJ; first compound 0.1581 µM) was 0.38. The relative viability (RERF-LC-KJ; first compound 0.5 µM) was 0.416, the relative viability (PC-14; first compound 0.005 µM) was 0.172 and the relative viability (PC-14; first compound 0.01581 µM) was 0.133. For the same compound, the relative viability (PC-14; first compound 0.05 µM) was 0.131, the relative viability (PC-14; first compound 0.1581 µM) was 0.131 and the relative viability (PC-14; first compound 0.5 µM) was 0.0979. The relative viability (HCC-827; first compound 0.005 µM) was 0.591, the relative viability (HCC-827; first compound 0.01581 µM) was 0.396 and the relative viability (HCC-827; first compound 0.05 µM) was 0.336. The relative viability (HCC-827; first compound 0.1581 µM) was 0.154, the relative viability (HCC-827; first compound 0.5 µM) was 0.144 and the relative viability (201T; first compound 0.005 µM) was 1.09. It also gave a relative viability (201T; first compound 0.01581 µM) of 1.12, a relative viability (201T; first compound 0.05 µM) of 1.14 and a relative viability (201T; first compound 0.1581 µM) of 0.982. For the same compound, the relative viability (201T; first compound 0.5 µM) was 0.974, the relative viability (NCI-H2126; first compound 0.005 µM) was 0.789 and the relative viability (NCI-H2126; first compound 0.01581 µM) was 0.86. The relative viability (NCI-H2126; first compound 0.05 µM) was 0.671, the relative viability (NCI-H2126; first compound 0.1581 µM) was 0.53 and the relative viability (NCI-H2126; first compound 0.5 µM) was 0.427. It also gave a relative viability (COR-L 105; first compound 0.005 µM) of 0.783, a relative viability (COR-L 105; first compound 0.01581 µM) of 0.667 and a relative viability (COR-L 105; first compound 0.05 µM) of 0.739. For the same compound, the relative viability (COR-L 105; first compound 0.1581 µM) was 0.405, the relative viability (COR-L 105; first compound 0.5 µM) was 0.278 and the relative viability (ChaGo-K-1; first compound 0.005 µM) was 0.649. It also gave a relative viability (ChaGo-K-1; first compound 0.01581 µM) of 0.43, a relative viability (ChaGo-K-1; first compound 0.05 µM) of 0.263 and a relative viability (ChaGo-K-1; first compound 0.1581 µM) of 0.206. It also gave a relative viability (ChaGo-K-1; first compound 0.5 µM) of 0.188, a relative viability (NCI-H1666; first compound 0.005 µM) of 1.01 and a relative viability (NCI-H1666; first compound 0.01581 µM) of 0.94. For the same compound, the relative viability (NCI-H1666; first compound 0.05 µM) was 0.675, the relative viability (NCI-H1666; first compound 0.1581 µM) was 0.539 and the relative viability (NCI-H1666; first compound 0.5 µM) was 0.579. For the same compound, the relative viability (LC-2-ad; first compound 0.005 µM) was 0.892, the relative viability (LC-2-ad; first compound 0.01581 µM) was 0.994 and the relative viability (LC-2-ad; first compound 0.05 µM) was 0.768. For the same compound, the relative viability (LC-2-ad; first compound 0.1581 µM) was 0.636, the relative viability (LC-2-ad; first compound 0.5 µM) was 0.478 and the relative viability (NCI-H2405; first compound 0.005 µM) was 0.64. It also gave a relative viability (NCI-H2405; first compound 0.01581 µM) of 0.547, a relative viability (NCI-H2405; first compound 0.05 µM) of 0.553 and a relative viability (NCI-H2405; first compound 0.1581 µM) of 0.369. It also gave a relative viability (NCI-H2405; first compound 0.5 µM) of 0.318, a relative viability (LCLC-97TM1; first compound 0.005 µM) of 0.742 and a relative viability (LCLC-97TM1; first compound 0.01581 µM) of 0.69. It also gave a relative viability (LCLC-97TM1; first compound 0.05 µM) of 0.709, a relative viability (LCLC-97TM1; first compound 0.1581 µM) of 0.318 and a relative viability (LCLC-97TM1; first compound 0.5 µM) of 0.344. It also gave a relative viability (NCI-H661; first compound 0.005 µM) of 0.805, a relative viability (NCI-H661; first compound 0.01581 µM) of 0.873 and a relative viability (NCI-H661; first compound 0.05 µM) of 0.766. The relative viability (NCI-H661; first compound 0.1581 µM) was 0.511, the relative viability (NCI-H661; first compound 0.5 µM) was 0.37 and the relative viability (NCI-H650; first compound 0.005 µM) was 0.606. The relative viability (NCI-H650; first compound 0.01581 µM) was 0.485, the relative viability (NCI-H650; first compound 0.05 µM) was 0.253 and the relative viability (NCI-H650; first compound 0.1581 µM) was 0.187. The relative viability (NCI-H650; first compound 0.5 µM) was 0.17, the relative viability (EPLC-272H; first compound 0.005 µM) was 0.433 and the relative viability (EPLC-272H; first compound 0.01581 µM) was 0.241. It also gave a relative viability (EPLC-272H; first compound 0.05 µM) of 0.194, a relative viability (EPLC-272H; first compound 0.1581 µM) of 0.228 and a relative viability (EPLC-272H; first compound 0.5 µM) of 0.243. The relative viability (NCI-H1915; first compound 0.005 µM) was 0.622, the relative viability (NCI-H1915; first compound 0.01581 µM) was 0.773 and the relative viability (NCI-H1915; first compound 0.05 µM) was 0.871. It also gave a relative viability (NCI-H1915; first compound 0.1581 µM) of 0.486, a relative viability (NCI-H1915; first compound 0.5 µM) of 0.435 and a relative viability (NCI-H23; first compound 0.005 µM) of 0.179. The relative viability (NCI-H23; first compound 0.01581 µM) was 0.192, the relative viability (NCI-H23; first compound 0.05 µM) was 0.197 and the relative viability (NCI-H23; first compound 0.1581 µM) was 0.199. For the same compound, the relative viability (NCI-H23; first compound 0.5 µM) was 0.188, the relative viability (NCI-H2087; first compound 0.005 µM) was 0.151 and the relative viability (NCI-H2087; first compound 0.01581 µM) was 0.134. It also gave a relative viability (NCI-H2087; first compound 0.05 µM) of 0.169, a relative viability (NCI-H2087; first compound 0.1581 µM) of 0.151 and a relative viability (NCI-H2087; first compound 0.5 µM) of 0.134.
